According to ChEMBL document CHEMBL1201861, “Genomics of Drug Sensitity in Cancer screening data, Wellcome Trust Sanger Institute”:

Columns and labels:
Format in all cases: functional, cell-based
[1] = test system: ECC4; assay: cells; settings: Homo sapiens;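 further: growth inhibition of ECC4 cells, read out with a cell viability assay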
Description: SANGER: Inhibition of human ECC4 cell growth in a cell viability assay.

[2] = test system: NCI-H1963; assay: cells; settings: Homo sapiens;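 further: cell growth inhibition of the human line, determined with a cell viability assay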
Description: SANGER: Inhibition of human NCI-H1963 cell growth in a cell viability assay.

[3] = test system: NCI-H727; assay: cells; settings: Homo sapiens;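 further: growth inhibition of human NCI-H727 cells, read out with a cell viability assay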
Description: SANGER: Inhibition of human NCI-H727 cell growth in a cell viability assay.

[4] = test system: NCI-H1993; assay: cells; settings: Homo sapiens;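 further: growth inhibition of the cancer cell line, assessed with a cell viability assay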
Description: SANGER: Inhibition of human NCI-H1993 cell growth in a cell viability assay.

[5] = test system: U-251; assay: cells; settings: Homo sapiens;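 further: growth inhibition of human U-251 cells, read out through a cell viability assay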
Description: SANGER: Inhibition of human U251 cell growth in a cell viability assay.

[6] = test system: D-542MG; assay: cells; settings: Homo sapiens
Description: SANGER: Inhibition of human D-542MG cell growth in a cell viability assay.

[7] = test system: T47D; assay: cells; settings: Homo sapiens;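 further: growth inhibition of human T47D cells, measured with a cell viability assay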
Description: SANGER: Inhibition of human T47D cell growth in a cell viability assay.

[8] = test system: RMG-I; assay: cells; settings: Homo sapiens;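 further: growth inhibition of human RMG-I cells, read out with a cell viability assay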
Description: SANGER: Inhibition of human RMG-I cell growth in a cell viability assay.

[9] = test system: BFTC-909; assay: cells; settings: Homo sapiens
Description: SANGER: Inhibition of human BFTC-909 cell growth in a cell viability assay.

[10] = test system: KYSE-140; assay: cells; settings: Homo sapiens;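 further: cell viability assay measuring growth inhibition in human KYSE-140 cells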
Description: SANGER: Inhibition of human KYSE-140 cell growth in a cell viability assay.

[11] = test system: UACC-812; assay: cells; settings: Homo sapiens
Description: SANGER: Inhibition of human UACC-812 cell growth in a cell viability assay.

[12] = test system: C32; assay: cells; settings: Homo sapiens;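 further: cell viability assay, with IC50 reflecting inhibition of C32 cell growth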
Description: SANGER: Inhibition of human C32 cell growth in a cell viability assay.

[13] = test system: RPMI-7951; assay: cells; settings: Homo sapiens
Description: SANGER: Inhibition of human RPMI-7951 cell growth in a cell viability assay.

[14] = test system: KYSE-450; assay: cells; settings: Homo sapiens;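 further: cell growth inhibition measured by a viability assay in human KYSE-450 cells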
Description: SANGER: Inhibition of human KYSE-450 cell growth in a cell viability assay.

[15] = test system: YAPC; assay: cells; settings: Homo sapiens;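 further: growth inhibition of YAPC cells, measured with a cell viability assay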
Description: SANGER: Inhibition of human YAPC cell growth in a cell viability assay.

[16] = test system: SK-MEL-24; assay: cells; settings: Homo sapiens;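 further: growth inhibition read out by a cell viability assay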
Description: SANGER: Inhibition of human SK-MEL-24 cell growth in a cell viability assay.

[17] = test system: UACC-893; assay: cells; settings: Homo sapiens
Description: SANGER: Inhibition of human UACC-893 cell growth in a cell viability assay.

[18] = test system: HT-3; assay: cells; settings: Homo sapiens;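 further: growth inhibition measured with a cell viability readout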
Description: SANGER: Inhibition of human HT-3 cell growth in a cell viability assay.

[19] = test system: RPMI-6666; assay: cells; settings: Homo sapiens
Description: SANGER: Inhibition of human RPMI-6666 cell growth in a cell viability assay.

[20] = test system: NCI-H2347; assay: cells; settings: Homo sapiens;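 further: growth inhibition of the cell line, read out with a cell viability assay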
Description: SANGER: Inhibition of human NCI-H2347 cell growth in a cell viability assay.

[21] = test system: CAL-51; assay: cells; settings: Homo sapiens;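 further: human CAL-51 cell line, growth inhibition read out via a cell viability assay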
Description: SANGER: Inhibition of human CAL-51 cell growth in a cell viability assay.

[22] = test system: NCI-H889; assay: cells; settings: Homo sapiens;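 further: cell growth inhibition of the cell line, read out with a viability assay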
Description: SANGER: Inhibition of human NCI-H889 cell growth in a cell viability assay.

[23] = test system: EFM-19; assay: cells; settings: Homo sapiens;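 further: growth inhibition of human EFM-19 cells, measured in a cell viability assay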
Description: SANGER: Inhibition of human EFM-19 cell growth in a cell viability assay.

[24] = test system: SW948; assay: cells; settings: Homo sapiens;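 further: growth inhibition of SW948 cells, read out with a cell viability assay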
Description: SANGER: Inhibition of human SW948 cell growth in a cell viability assay.

[25] = test system: AU565; assay: cells; settings: Homo sapiens;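 further: cell viability assay measuring growth inhibition of human AU565 cells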
Description: SANGER: Inhibition of human AU565 cell growth in a cell viability assay.

[26] = test system: GDM-1; assay: cells; settings: Homo sapiens;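 further: cell viability readout used to measure growth inhibition of human GDM-1 cells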
Description: SANGER: Inhibition of human GDM-1 cell growth in a cell viability assay.

[27] = test system: HPAF-II; assay: cells; settings: Homo sapiens;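 further: growth inhibition of HPAF-II cells, read out with a cell viability assay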
Description: SANGER: Inhibition of human HPAF-II cell growth in a cell viability assay.

[28] = test system: RERF-LC-MS; assay: cells; settings: Homo sapiens;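 further: growth inhibition of human RERF-LC-MS cells, read out by a cell viability assay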
Description: SANGER: Inhibition of human RERF-LC-MS cell growth in a cell viability assay.

[29] = test system: UO-31; assay: cells; settings: Homo sapiens
Description: SANGER: Inhibition of human U031 cell growth in a cell viability assay.

[30] = test system: K052; assay: cells; settings: Homo sapiens;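 further: Read-out from a cell viability assay, IC50 reflecting suppression of K052 cell growth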
Description: SANGER: Inhibition of human K052 cell growth in a cell viability assay.

[31] = test system: BC-3; assay: cells; settings: Homo sapiens;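 further: cell viability assay measuring growth inhibition of human BC-3 cells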
Description: SANGER: Inhibition of human BC-3 cell growth in a cell viability assay.

[32] = test system: T84; assay: cells; settings: Homo sapiens;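 further: growth inhibition measured with a cell viability readout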
Description: SANGER: Inhibition of human T84 cell growth in a cell viability assay.

[33] = test system: SUP-T1; assay: cells; settings: Homo sapiens;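 further: growth inhibition of human SUP-T1 cells, read out as cell viability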
Description: SANGER: Inhibition of human SUP-T1 cell growth in a cell viability assay.

[34] = test system: SK-N-AS; assay: cells; settings: Homo sapiens;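 further: growth inhibition of human SK-N-AS cells, measured with a cell viability assay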
Description: SANGER: Inhibition of human SK-N-AS cell growth in a cell viability assay.

[35] = test system: JIYOYE; assay: cells; settings: Homo sapiens
Description: SANGER: Inhibition of human JiyoyeP-2003 cell growth in a cell viability assay.

[36] = test system: NCI-H524; assay: cells; settings: Homo sapiens;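 further: growth inhibition of human NCI-H524 cells, read out through a cell viability assay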
Description: SANGER: Inhibition of human NCI-H524 cell growth in a cell viability assay.

[37] = test system: VMRC-RCZ; assay: cells; settings: Homo sapiens
Description: SANGER: Inhibition of human VMRC-RCZ cell growth in a cell viability assay.

[38] = test system: M059J; assay: cells; settings: Homo sapiens;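 further: growth inhibition of M059J cells, read out with a cell viability assay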
Description: SANGER: Inhibition of human M059J cell growth in a cell viability assay.

[39] = test system: AGS; assay: cells; settings: Homo sapiens;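 further: growth inhibition of AGS cells, determined with a cell viability assay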
Description: SANGER: Inhibition of human AGS cell growth in a cell viability assay.

[40] = test system: CaR-1; assay: cells; settings: Homo sapiens;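 further: growth inhibition of human CaR-1 cancer cells, read out with a cell viability assay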
Description: SANGER: Inhibition of human CaR-1 cell growth in a cell viability assay.

[41] = test system: NCI-H2009; assay: cells; settings: Homo sapiens;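 further: cell viability assay measuring inhibition of NCI-H2009 cell growth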
Description: SANGER: Inhibition of human NCI-H2009 cell growth in a cell viability assay.

[42] = test system: NB1; assay: cells; settings: Homo sapiens;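 further: reduction of NB1 cell proliferation, read out with a viability assay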
Description: SANGER: Inhibition of human NB1 cell growth in a cell viability assay.

[43] = test system: PF-382; assay: cells; settings: Homo sapiens
Description: SANGER: Inhibition of human PF-382 cell growth in a cell viability assay.

[44] = test system: CP50-MEL-B; assay: cells; settings: Homo sapiens;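 further: growth inhibition of the human cell line, measured with a cell viability read-out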
Description: SANGER: Inhibition of human CP50-MEL-B cell growth in a cell viability assay.

[45] = test system: 769-P; assay: cells; settings: Homo sapiens
Description: SANGER: Inhibition of human 769-P cell growth in a cell viability assay.

[46] = test system: OVCAR-8; assay: cells; settings: Homo sapiens;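 further: growth inhibition of human OVCAR-8 cells, read out by a cell viability assay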
Description: SANGER: Inhibition of human OVCAR-8 cell growth in a cell viability assay.

[47] = test system: Ca-Ski; assay: cells; settings: Homo sapiens;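 further: cell viability assay measuring inhibition of Ca-Ski cell growth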
Description: SANGER: Inhibition of human Ca-Ski cell growth in a cell viability assay.

[48] = test system: IM-9; assay: SANGER: Inhibition of human IM-9 cell growth in a cell viability assay.
[49] = test system: EHEB; assay: cells; settings: Homo sapiens;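 further: growth inhibition of human EHEB cells, read out with a cell viability assay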
Description: SANGER: Inhibition of human EHEB cell growth in a cell viability assay.

[50] = test system: P12-Ichikawa; assay: cells; settings: Homo sapiens
[51] = test system: NCI-H2081; assay: cells; settings: Homo sapiens;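 further: growth inhibition of human NCI-H2081 cells, read out with a cell viability assay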
Description: SANGER: Inhibition of human NCI-H2081 cell growth in a cell viability assay.

[52] = test system: THP-1; assay: cells; settings: Homo sapiens;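 further: growth inhibition of THP-1 cells, read out via a cell viability assay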
Description: SANGER: Inhibition of human THP-1 cell growth in a cell viability assay.

[53] = test system: TYK-nu; assay: cells; settings: Homo sapiens;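 further: growth inhibition of human TYK-nu cells, read out by a cell viability assay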
Description: SANGER: Inhibition of human TYK-nu cell growth in a cell viability assay.

[54] = test system: NCI-N87; assay: cells; settings: Homo sapiens;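 further: growth inhibition of human NCI-N87 cells, read out with a cell viability assay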
Description: SANGER: Inhibition of human NCI-N87 cell growth in a cell viability assay.

[55] = test system: CAL-85-1; assay: cells; settings: Homo sapiens;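 further: growth inhibition of human CAL-85-1 cells, read out with a cell viability assay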
Description: SANGER: Inhibition of human CAL-85-1 cell growth in a cell viability assay.

[56] = test system: RVH-421; assay: cells; settings: Homo sapiens
Description: SANGER: Inhibition of human RVH-421 cell growth in a cell viability assay.

[57] = test system: NCI-H748; assay: cells; settings: Homo sapiens;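 further: growth inhibition of NCI-H748 cells, measured by a cell viability assay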
Description: SANGER: Inhibition of human NCI-H748 cell growth in a cell viability assay.

[58] = test system: TGW; assay: cells; settings: Homo sapiens;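 further: growth inhibition of human TGW cells, read out with a cell viability assay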
Description: SANGER: Inhibition of human TGW cell growth in a cell viability assay.

[59] = test system: WSU-NHL; assay: cells; settings: Homo sapiens;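 further: growth inhibition of human WSU-NHL cells, read out with a cell viability assay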
Description: SANGER: Inhibition of human WSU-NHL cell growth in a cell viability assay.

[60] = test system: EGI-1; assay: cells; settings: Homo sapiens;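 further: cell viability readout used to gauge growth inhibition of EGI-1 cells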
Description: SANGER: Inhibition of human EGI-1 cell growth in a cell viability assay.

[61] = test system: COLO-679; assay: cells; settings: Homo sapiens
Description: SANGER: Inhibition of human COLO-679 cell growth in a cell viability assay.

[62] = test system: LC4-1; assay: cells; settings: Homo sapiens;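 further: growth inhibition of LC4-1 cells, read out with a cell viability assay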
Description: SANGER: Inhibition of human LC4-1 cell growth in a cell viability assay.

[63] = test system: SW1463; assay: cells; settings: Homo sapiens;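 further: growth inhibition of SW1463 cells, determined with a cell viability assay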
Description: SANGER: Inhibition of human SW1463 cell growth in a cell viability assay.

[64] = test system: EB2; assay: cells; settings: Homo sapiens
Description: SANGER: Inhibition of human EB2 cell growth in a cell viability assay.

[65] = test system: KP-4; assay: cells; settings: Homo sapiens
Description: SANGER: Inhibition of human KP-4 cell growth in a cell viability assay.

[66] = test system: Detroit 562; assay: cells; settings: Homo sapiens
Description: SANGER: Inhibition of human Detroit562 cell growth in a cell viability assay.

O=c1[nH]c2ccccc2n1C1CCN(Cc2ccc(-c3nc4cc5[nH]cnc5cc4nc3-c3ccccc3)cc2)CC1
IC50 [1]: > 2560 nM | IC50 [2]: > 2560 nM | IC50 [3]: > 2560 nM | IC50 [4]: > 2560 nM | IC50 [5]: > 2560 nM | IC50 [6]: > 2560 nM | IC50 [7]: 516 nM | IC50 [8]: > 2560 nM | IC50 [9]: > 2560 nM | IC50 [10]: > 2560 nM | IC50 [11]: > 2.56 µM | IC50 [12]: > 2.56 µM | IC50 [13]: > 2560 nM | IC50 [14]: > 2560 nM | IC50 [15]: > 2560 nM | IC50 [16]: > 2.56 µM | IC50 [17]: > 2.56 µM | IC50 [18]: > 2560 nM | IC50 [19]: > 2560 nM | IC50 [20]: > 2560 nM | IC50 [21]: > 2560 nM | IC50 [22]: > 2560 nM | IC50 [23]: 564 nM | IC50 [24]: > 2560 nM | IC50 [25]: 1240 nM | IC50 [26]: > 2560 nM | IC50 [27]: > 2560 nM | IC50 [28]: > 2560 nM | IC50 [29]: > 2560 nM | IC50 [30]: > 2560 nM | IC50 [31]: > 2560 nM | IC50 [32]: > 2560 nM | IC50 [33]: > 2560 nM | IC50 [34]: > 2560 nM | IC50 [35]: > 2560 nM | IC50 [36]: > 2.56 µM | IC50 [37]: > 2560 nM | IC50 [38]: > 2560 nM | IC50 [39]: > 2560 nM | IC50 [40]: > 2560 nM | IC50 [41]: > 2560 nM | IC50 [42]: > 2560 nM | IC50 [43]: > 2560 nM | IC50 [44]: > 2560 nM | IC50 [45]: > 2560 nM | IC50 [46]: > 2560 nM | IC50 [47]: > 2560 nM | IC50 [48]: > 2.56 µM | IC50 [49]: > 2560 nM | IC50 [50]: > 2.56 µM | IC50 [51]: > 2560 nM | IC50 [52]: > 2560 nM | IC50 [53]: > 2560 nM | IC50 [54]: > 2.56 µM | IC50 [55]: > 2560 nM | IC50 [56]: > 2560 nM | IC50 [57]: > 2560 nM | IC50 [58]: > 2.56 µM | IC50 [59]: > 2560 nM | IC50 [60]: > 2560 nM | IC50 [61]: > 2560 nM | IC50 [62]: > 2560 nM | IC50 [63]: > 2560 nM | IC50 [64]: > 2560 nM | IC50 [65]: > 2560 nM | IC50 [66]: > 2560 nM

Fc1cc(-c2cc[nH]/c(=N/c3ccc(-n4cnc(N5CCOCC5)n4)cc3)n2)cc(N2CCOCC2)c1
IC50 [1]: 2730 nM | IC50 [2]: 873 nM | IC50 [3]: 647 nM | IC50 [4]: 2280 nM | IC50 [5]: 1310 nM | IC50 [6]: 357 nM | IC50 [7]: > 5120 nM | IC50 [8]: 1250 nM | IC50 [9]: 838 nM | IC50 [10]: 1050 nM | IC50 [11]: 4.42 µM | IC50 [12]: > 5.12 µM | IC50 [13]: 721 nM | IC50 [14]: 329 nM | IC50 [15]: 2290 nM | IC50 [16]: > 5.12 µM | IC50 [17]: 4.99 µM | IC50 [18]: 102 nM | IC50 [19]: 296 nM | IC50 [20]: 1020 nM | IC50 [21]: 219 nM | IC50 [22]: 2260 nM | IC50 [23]: 760 nM | IC50 [24]: 835 nM | IC50 [25]: 285 nM | IC50 [26]: 204 nM | IC50 [27]: 512 nM | IC50 [28]: 874 nM | IC50 [29]: 519 nM | IC50 [30]: 508 nM | IC50 [31]: 598 nM | IC50 [32]: 1520 nM | IC50 [33]: 427 nM | IC50 [34]: 1210 nM | IC50 [35]: 263 nM | IC50 [36]: > 5.12 µM | IC50 [37]: 999 nM | IC50 [38]: 926 nM | IC50 [39]: 415 nM | IC50 [40]: 1880 nM | IC50 [41]: 508 nM | IC50 [42]: 447 nM | IC50 [43]: 476 nM | IC50 [44]: 722 nM | IC50 [45]: 535 nM | IC50 [46]: 412 nM | IC50 [47]: 532 nM | IC50 [48]: 3.34 µM | IC50 [49]: 376 nM | IC50 [50]: 3.81 µM | IC50 [51]: 1500 nM | IC50 [52]: 1050 nM | IC50 [53]: 2620 nM | IC50 [54]: > 5.12 µM | IC50 [55]: 881 nM | IC50 [56]: 415 nM | IC50 [57]: 1080 nM | IC50 [58]: 3.47 µM | IC50 [59]: 587 nM | IC50 [60]: 686 nM | IC50 [61]: 250 nM | IC50 [62]: 431 nM | IC50 [63]: 649 nM | IC50 [64]: 581 nM | IC50 [65]: 577 nM | IC50 [66]: 321 nM
